The values that follow are results of earlier work, collected in article PMC9010257 (Clinical and Translational Science, 2022).

The data set deals with TNAP.

In the case of `Cn1c(=O)c2[nH]cnc2n(C)c1=O` [theophylline], the inhibitory activity result is listed as “weak inhibitory activity” and the “specificity for TNAP” value is “not specific for TNAP”.

For `c1ccc([C@H]2CN3CCSC3=N2)cc1` [levamisole], the inhibitory activity result is listed as “weak inhibitory activity” and the “specificity for TNAP” value is recorded as “not specific for TNAP”.
